Data set [1] can be described thus: Stability test (high humidity, light, high temperature, high temperature stress; HPLC). Format: physicochemical.
The nature of data set [2]: Pharmacokinetics and bioavailability test in beagle dogs (Test Example 3). Format: in vivo. Particulars: for bioavailability: absolute oral bioavailability. The procedure:
Six healthy male beagle dogs were randomly divided into three groups, with two dogs in each group. […] Blood samples were collected from the forelimb vein of the dogs before and at various time points after administration. Plasma drug concentrations at different times were measured by LC-MS/MS. Pharmacokinetic parameters and the absolute oral bioavailability were calculated using WinNonlin7.0 software.

The nature of data set [3]: Stability test (high humidity, light, high temperature, high temperature stress; HPLC). The format is physicochemical. The method, then:
These samples were stored under two different conditions: (1) relative humidity of 92.5% at 25°C, and (2) relative humidity of 75% ± 1% at room temperature; The samples were maintained under these conditions for 10 days. Sampling was performed on day 0 and day 10, followed by HPLC analysis.
HPLC analysis was performed on day 0 and day 10.
Samples were collected and subjected to HPLC analysis.
The source holds these as a separate data set.

The format of data set [4] is physicochemical. Particulars: Water, 25°C ± 2°C. The procedure:
An appropriate amount of the test substance was accurately weighed And placed under conditions of 25°C ± 2°C. Different solvents were added in suitable quantities, and the mixture was vigorously shaken for 30 seconds every 5 minutes, and the dissolution status was observed over a period of 30 minutes. […]

Data set [5] is described as follows: Pharmacokinetics and bioavailability test in beagle dogs (Test Example 4). Format: in vivo. The procedure:
Experimental method: Six healthy beagle dogs were randomly divided into two groups, with two dogs (one female and one male) in the first group, and four dogs (two females and two males) in the second group. […] Blood samples were collected from the forelimb veins of beagle dogs at various time points before and after administration. Plasma was obtained by centrifugation, and drug concentrations in plasma at different time points were measured using LC-MS/MS. Pharmacokinetic parameters and the absolute oral bioavailability were calculated using WinNonlin8.0 software.

The next data set concerns the target adrenergic receptors. Particulars: no significant affinity; cited from earlier work.
The target of data set [6] is calcium channel receptors. Particulars: no significant affinity; cited from earlier work.
For another data set, the target named is muscarinic receptors. Particulars: no significant affinity; cited from earlier work.
In data set [7] the target is dopamine receptors (including D2 receptors). Particulars: no significant affinity; cited from earlier work.
The next data set deals with 5-HT2B receptors (Homo sapiens, UniProt P41595). Particulars: no significant affinity; cited from earlier work.
Sequence of 5-HT2B receptors (P41595 whole entry): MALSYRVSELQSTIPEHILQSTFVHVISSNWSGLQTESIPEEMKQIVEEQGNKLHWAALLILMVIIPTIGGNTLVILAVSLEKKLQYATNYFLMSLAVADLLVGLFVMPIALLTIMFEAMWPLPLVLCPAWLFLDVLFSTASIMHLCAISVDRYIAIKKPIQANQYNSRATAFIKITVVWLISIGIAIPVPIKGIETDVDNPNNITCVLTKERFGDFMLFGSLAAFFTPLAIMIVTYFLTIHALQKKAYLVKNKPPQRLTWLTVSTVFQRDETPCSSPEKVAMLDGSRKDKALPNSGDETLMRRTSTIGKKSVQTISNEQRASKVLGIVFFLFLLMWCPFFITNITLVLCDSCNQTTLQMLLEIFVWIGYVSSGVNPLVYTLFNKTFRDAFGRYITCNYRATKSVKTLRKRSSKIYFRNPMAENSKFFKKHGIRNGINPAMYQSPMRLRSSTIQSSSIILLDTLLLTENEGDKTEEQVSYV
Setting [8] is: High temperature of 40 °C for 10 days.
Where [9] appears, read: High temperature of 60 °C for 10 days.
The mark [10] stands for this setting: High temperature of 105 °C for 1 day.
Setting [11] is: Light exposure for 10 days (5000 lx ± 500 lx; UV 90 µW/cm^2).
Where [12] appears, read: PO 5 mg/kg (calculated as free base), capsules, male beagle dogs, plasma.
The mark [13] stands for this setting: 75% High humidity for 10 days, room temperature.
Where [14] appears, read: 92.5% High humidity for 10 days, 25°C.
Where [15] appears, read: PO 10 mg/kg (calculated based on free base), capsule.
The mark [16] stands for this setting: both sexes, dog, plasma, PO 10 mg/kg (calculated based on free base), capsule.
The mark [17] stands for this setting: IV 0.69 mg/kg (calculated based on free base).
[18] abbreviates: dog, in vivo, IV 0.69 mg/kg (calculated based on free base).

Here are results for four compounds from EP4700019A1, “CRYSTAL FORM OF 1,5-DIHYDRO-2,4-BENZODIAZEPINE-3-ONE DERIVATIVE CITRATE, PREPARATION METHOD, AND USE THEREOF” (priority 2023, dated 2024).

Structures can show the parent of a compound that is named as a salt. Where two headings read alike, the source gives them in different places. Bounds are passed on as bounds.

`CN1CCC(N2Cc3cc(F)ccc3CN(Cc3ccc(OC4CC4)cc3)C2=O)CC1` [Base compound, 2-(4-cyclopropyloxybenzyl)-7-fluoro-4-(1-methylpiperidin-4-yl)-1,2,4-tetrahydro-3H-benzo[e][1,3]d iazepine-3-one]: the “HPLC determination results of the stability” value (“HPLC determination results” for short) worked out at 95.418% in data set [1] (setting [8]); 82.682% in data set [1] (setting [9]); 76.929% in [1] (setting [10]); 95.604% in data set [1] (setting [11]); 97.643% in data set [3] (setting [13]); 97.703% in [3] (setting [14]). For the same compound, in data set [3] (original sample (0 day)), the “HPLC determination results” value worked out at 98.018%. Also, the AUC0-last in data set [2] (setting [12]) is 43.9 ng·h/mL. The Cmax in data set [2] (setting [12]) is 10.2 ng/mL. The bioavailability in [2] (PO 5 mg/kg (calculated as free base), capsules, male beagle dogs) is listed as 2.4%. In addition, the “Conclusion (solubility)” value in [4] is “insoluble”.

Turning to `CN1CCC(N2Cc3cc(F)ccc3CN(Cc3ccc(OC4CC4)cc3)C2=O)CC1.O=C(O)CC(O)(CC(=O)O)C(=O)O` [Crystalline form II, 2-(4-cyclopropyloxybenzyl)-7-fluoro-4-(1-methylpiperidin-4-yl)-1,2,4,5-tetrahydro-3H-benzo[e] [1,3]diazepine-3-one citrate], the “HPLC determination results” value is 99.756% in data set [1] (setting [8]); 99.723% in [1] (setting [9]); 99.709% in data set [1] (setting [10]); 99.762% in [1] (setting [11]); 99.749% in data set [3] (setting [13]); 99.735% in data set [3] (setting [14]). The “HPLC determination results” value in data set [3] (original sample (0 day)) is 99.839%. Also, the bioavailability in data set [2] (dog, plasma, PO 5 mg/kg (calculated as free base), capsules, male beagle dogs, read-out: bioavailability) is 7.4%; in data set [5] (both sexes, dog, plasma, PO 10 mg/kg (calculated based on free base), capsule, absolute oral bioavailability), 94.8%. Also, the AUC(0-t) is 139 ng·h/mL in data set [2] (dog, PO 5 mg/kg (calculated as free base), capsules, male beagle dogs, plasma) and 6280 ng·h/mL in data set [5] (setting [16]). In addition, the Cmax in [2] (dog, PO 5 mg/kg (calculated as free base), capsules, male beagle dogs, plasma, read-out: Cmax) is 38.8 ng/mL; in [5] (setting [16]), 754 ng/mL. Moreover, the “increase of bioavailability compared with the base compound” value in data set [2] (oral solid dosage form, PO 5 mg/kg, beagle dogs) is “more than 3 times”. Besides, in [5] (setting [15]), the AUC_%Extrap is 2.12%. Moreover, in data set [5] (setting [15]), the MPT0-last was 6.62 h. Besides, in [5] (setting [15]), the Rsq_adj was 1.00. Also, in data set [5] (setting [16]), the AUC(0-inf) is 6400 ng·h/mL. In addition, in data set [5] (setting [16]), the time to peak (Tmax) is 2.25 h. Besides, in [5] (setting [16]), the half-life was 3.96 h. Besides, in [4] (citrate), the “Conclusion (solubility)” value is recorded as “Very Slightly Soluble”.

Turning to `CC(C)COc1ccc(CNC(=O)N(Cc2ccc(F)cc2)C2CCN(C)CC2)cc1` [Pimavanserin], the Ki (on adrenergic receptors; in [6]; on muscarinic receptors; in [7]; on 5-HT2B receptors) was over 300 nM each time.

As for `CN1CCC(N2Cc3cc(F)ccc3CN(Cc3ccc(OC4CC4)cc3)C2=O)CC1` [citrate, 2-(4-cyclopropyloxybenzyl)-7-fluoro-4-(1-methylpiperidin-4-yl)-1,2,4-tetrahydro-3H-benzo[e][1 ,3]diazepine-3-one citrate], the AUC(0-t) in data set [2] (dog, in vivo, IV 1 mg/kg, male beagle dogs, plasma) was found to be 348 ng·h/mL. In data set [2] (dog, in vivo, IV 1 mg/kg, male beagle dogs, plasma, read-out: Cmax), the Cmax stood at 138 ng/mL. In data set [5] (setting [17]), the AUC_%Extrap is on record as 4.20%, the MPT0-last is recorded as 4.41 h and the Rsq_adj is 1.00. In [5] (setting [18]), the AUC(0-inf) was 466 ng·h/mL, the AUC(0-t) is 447 ng·h/mL, the Cmax is 220 ng/mL and the Tmax is 0.08 h. For the same compound, in [5] (setting [18]), the clearance is 24.7 mL/min/kg and the half-life was 2.2 h. In addition, in data set [5] (dog, in vivo, IV 0.69 mg/kg (calculated based on free base), read-out: Vdss), the Vd was 2.5 L/kg.
